Results reported in the supplement of paper PMC10307832.

Tests used:
Assay in all cases: relative viability (nuclei count vs DMSO), 5 days (fraction); higher = more cells survive
[1] = compound: C/C(=N\NC(=S)N1CCC1)/C2=CC=CC=N2 + Cc1nc(Nc2ncc(C(=O)Nc3c(C)cccc3Cl)s2)cc(N2CCN(CCO)CC2)n1 [Dasatinib] (partner 0.075 µM)
Procedure, shortened: (§1)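 Lung cancer cell lines were pin-tool dosed in 1536-well plates on the day after seeding, with either a lone drug or a fixed anchor-drug dose plus five library-drug doses (not always all listed) in √10 steps. Nuclei were counted on 4× images after 5 days. Relative viability is the ratio of treated-well to vehicle-well nuclei counts, with each value a median of duplicate plates.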

[2] = compound: C/C(=N\NC(=S)N1CCC1)/C2=CC=CC=N2 + O=C(CCCCCCC(=O)Nc1ccccc1)NO [Vorinostat] (partner 1 µM)
Procedure, shortened: as §1

[3] = compound: C/C(=N\NC(=S)N1CCC1)/C2=CC=CC=N2 + C[C@@H](Oc1cc(-c2cnn(C3CCNCC3)c2)cnc1N)c1c(Cl)ccc(F)c1Cl [Crizotinib] (partner 1 µM)
Procedure, shortened: as §1

[4] = compound: C/C(=N\NC(=S)N1CCC1)/C2=CC=CC=N2 + CS(=O)(=O)N1CCN(Cc2cc3nc(-c4cccc5[nH]ncc45)nc(N4CCOCC4)c3s2)CC1 [Pictilisib] (partner 1 µM)
Procedure, shortened: as §1

| Cell Line | relative viability ([1]; first compound 0.05 µM) | relative viability ([1]; first compound 0.1581 µM) | relative viability ([1]; first compound 0.5 µM) | relative viability ([1]; first compound 1.581 µM) | relative viability ([1]; first compound 5 µM) | relative viability ([2]; first compound 0.05 µM) | relative viability ([2]; first compound 0.1581 µM) | relative viability ([2]; first compound 0.5 µM) | relative viability ([2]; first compound 1.581 µM) | relative viability ([2]; first compound 5 µM) | relative viability ([3]; first compound 0.05 µM) | relative viability ([3]; first compound 0.1581 µM) | relative viability ([3]; first compound 0.5 µM) | relative viability ([3]; first compound 1.581 µM) | relative viability ([3]; first compound 5 µM) | relative viability ([4]; first compound 0.05 µM) | relative viability ([4]; first compound 0.1581 µM) | relative viability ([4]; first compound 0.5 µM) | relative viability ([4]; first compound 1.581 µM) | relative viability ([4]; first compound 5 µM) |
| --- | --- | --- | --- | --- | --- | --- | --- | --- | --- | --- | --- | --- | --- | --- | --- | --- | --- | --- | --- | --- |
| PC-3 [JPC-3] | 0.252 | 0.281 | 0.238 | 0.235 | 0.188 | 0.338 | 0.436 | 0.357 | 0.269 | 0.196 | 0.594 | 0.984 | 0.361 | 0.301 | 0.252 | 0.278 | 0.319 | 0.31 | 0.279 | 0.221 |
| PC-14 | 0.0371 | 0.0372 | 0.0336 | 0.023 | 0.0224 | 0.0311 | 0.0568 | 0.041 | 0.041 | 0.0331 | 0.215 | 0.11 | 0.0946 | 0.0983 | 0.0928 | 0.0639 | 0.0478 | 0.0584 | 0.0411 | 0.0523 |
| RERF-LC-KJ | 0.258 | 0.25 | 0.266 | 0.219 | 0.245 | 0.214 | 0.207 | 0.19 | 0.21 | 0.208 | 0.224 | 0.263 | 0.253 | 0.239 | 0.242 | 0.19 | 0.17 | 0.173 | 0.18 | 0.191 |
| SK-LU-1 | 0.123 | 0.139 | 0.145 | 0.0978 | 0.114 | 0.21 | 0.244 | 0.242 | 0.219 | 0.272 | 0.277 | 0.191 | 0.203 | 0.19 | 0.208 | 0.166 | 0.188 | 0.212 | 0.158 | 0.139 |
| SK-MES-1 | 0.145 | 0.155 | 0.133 | 0.107 | 0.126 | 0.198 | 0.208 | 0.182 | 0.177 | 0.183 | 0.231 | 0.214 | 0.179 | 0.167 | 0.177 | 0.168 | 0.174 | 0.153 | 0.139 | 0.162 |
| SW 1573 | 0.0654 | 0.0445 | 0.0863 | 0.0351 | 0.0432 | 0.0949 | 0.115 | 0.145 | 0.0758 | 0.0799 | 0.11 | 0.123 | 0.138 | 0.102 | 0.0709 | 0.102 | 0.0856 | 0.0985 | 0.104 | 0.0817 |
| UMC-11 | 0.231 | 0.186 | 0.153 | 0.138 | 0.146 | 0.168 | 0.14 | 0.146 | 0.134 | 0.139 | 0.181 | 0.115 | 0.128 | 0.101 | 0.0892 | 0.19 | 0.174 | 0.189 | 0.144 | 0.133 |
